Reference: ChEMBL document CHEMBL5338807, “Design and Synthesis of Bouchardatine Derivatives as a Novel AMP-Activated Protein Kinase Activator for the Treatment of Colorectal Cancer” (J Med Chem, 2023)
Active and inactive are the calls of the source. No cut-off for these calls is given here.

How the values were obtained:
Type in all cases: functional, cell-based
RKO [1] = test: Antiproliferative activity against human RKO cells assessed as reduction in cell viability incubated for 24 hrs
RKO [2] = test: Inhibition of cell migration of human RKO cells at 1 uM incubated for 48 hrs by wound healing assay
RKO [3] = test: Antiproliferative activity against human RKO cells assessed as inhibition of colony formation at 1 uM measured after 7 days by crystal violet staining based assay; conditions: time 7.0 day
RKO [4] = test: Effect on metabolism in human RKO cells assessed as activation of oxidative phosphorylation at 1 uM measured after 24 hrs by seahorse analysis

| Compound | IC50 (RKO [1]) [µM] | further results |
| --- | --- | --- |
| Cc1ccc(CCNc2nc(-c3[nH]c4ccccc4c3C=O)nc3ccccc23)cc1 | 1.8 | – |
| CN(C)CCCN(CCCN(C)C)c1nc(-c2[nH]c3ccccc3c2C=O)nc2ccccc12 | 1.8 | – |
| O=Cc1c(-c2nc(NC3CC3)c3ccccc3n2)[nH]c2ccccc12 | 3.9 | – |
| Cc1c(-c2nc(N(C)CCCN(C)C)c3ccccc3n2)[nH]c2ccccc12 | > 10 | – |
| O=Cc1c(-c2nc(NC(=O)c3cccnc3)c3ccccc3n2)[nH]c2ccccc12 | > 10 | – |
| CC(=O)c1c(-c2nc(NCCCN(C)C)c3ccccc3n2)[nH]c2ccccc12 | > 10 | – |
| CCN1CCC[C@H]1CNc1nc(-c2[nH]c3ccccc3c2C=O)nc2ccccc12 | 0.9 | inhibition (RKO [2]): Active; inhibition (RKO [3]): Active; Activity (RKO [4]): Active |
| O=Cc1c(-c2nc(NCCN3CCCC3)c3ccccc3n2)[nH]c2ccccc12 | 1.1 | – |
| COc1ccc2[nH]c(-c3nc(NCCN4CCCC4)c4ccccc4n3)c(C=O)c2c1 | 1.6 | – |
| O=Cc1c(-c2nc(NCCCC(=O)O)c3ccccc3n2)[nH]c2ccccc12 | > 10 | – |
| O=Cc1c(-c2nc(Nc3ccc(N4CCCCC4)cc3)c3ccccc3n2)[nH]c2ccccc12 | > 10 | – |
| CCCS(=O)(=O)Nc1nc(-c2[nH]c3ccccc3c2C=O)nc2ccccc12 | > 10 | – |
| O=Cc1c(-c2nc(NCC(F)F)c3ccccc3n2)[nH]c2ccccc12 | 7.9 | – |
| Cc1ccc2[nH]c(-c3nc(NCCCN(C)C)c4ccccc4n3)c(C=O)c2c1 | 2 | – |
| CN(C)CCCNc1nc(-c2[nH]c3ccc(F)cc3c2C=O)nc2ccccc12 | 1.9 | – |
| O=Cc1c(-c2nc(NCC3CCC3)c3ccccc3n2)[nH]c2ccccc12 | 6.2 | – |
| O=Cc1c(-c2nc(NCCO)c3ccccc3n2)[nH]c2ccccc12 | > 10 | – |
| COCCNc1nc(-c2[nH]c3ccccc3c2C=O)nc2ccccc12 | 4.1 | – |
| O=Cc1c(-c2nc(NCCc3ccccc3)c3ccccc3n2)[nH]c2ccccc12 | 0.8 | inhibition (RKO [2]): Active; inhibition (RKO [3]): Active; Activity (RKO [4]): inactive |
| O=Cc1c(-c2nc(NCCCC(=O)N3CCCC3)c3ccccc3n2)[nH]c2ccccc12 | 8.7 | – |
| COCCCNc1nc(-c2[nH]c3ccccc3c2C=O)nc2ccccc12 | 1.1 | – |
| O=Cc1c(-c2nc(NC34CC5CC(CC(C5)C3)C4)c3ccccc3n2)[nH]c2ccccc12 | > 10 | – |
| O=Cc1c(-c2nc3ccccc3c(=O)[nH]2)[nH]c2ccccc12 | > 10 | inhibition (RKO [2]): Active; inhibition (RKO [3]): Active; Activity (RKO [4]): Active |
| O=Cc1c(-c2nc(NC(C3CC3)C3CC3)c3ccccc3n2)[nH]c2ccccc12 | 6 | – |
| O=Cc1c(-c2nc(NCCNC(=O)C3CC3)c3ccccc3n2)[nH]c2ccccc12 | 1.2 | – |
| CC(=O)c1c(-c2nc(NCCN3CCCCC3)c3ccccc3n2)[nH]c2ccccc12 | 9.5 | – |
